Measured values as given in article PMC8808171, “Nonselective TRPC channel inhibition and suppression of aminoglycoside-induced premature termination codon readthrough by the small molecule AC1903” (The Journal of Biological Chemistry, 2022).

Tested on: TC-71 cells (TP53 R213X)
Test: G418-induced PTC readthrough (full-length p53, capillary electrophoresis Western) in TC-71 cells
Assay type: cell-based
Settings: without G418
Text: Variation in PTC readthrough response has been reported among individuals or cell lines with different nonsense mutations. Although this in part highlights the importance of the stop codon and its surrounding sequence as well as the physical location of the nonsense mutation in the mRNA sequence, understanding the contribution of other underlying genetic variations becomes more complicated. To rule out the effect of the sequence and position of nonsense mutations on response variation to potential PTC readthrough modulators, we studied two cancer cell lines, DMS-114 and TC-71, with identical homozygous nonsense mutation R213X in their TP53 gene. […] To find out whether the reduced response to G418 in TC-71 cells was associated with lower intracellular levels of G418, we measured concentrations of G418 in both cell lines at 0, 8 and 24 h post exposure to G418 (100 μg/ml).
Figure 1 Effect of TRPC inhibitors on G418 induced PTC readthrough. A, DMS-114 and TC-71 cell lines with homozygous TP53 nonsense mutation (R213X) were exposed to indicated concentrations of G418 for 24 h and p53 levels (full-length, FL-p53; truncated, TR-p53) were measured. B, 100 μg/ml G418 was added to DMS-114 and TC-71 cells and its total intracellular levels were measured at indicated time points (n = 5; data normalized to the highest response in each experiment; bars represent mean ± SD). […]

c1ccc(Cn2c(NCc3ccco3)nc3ccccc32)cc1 [AC1903]
effect on PTC readthrough of AC1903 alone: did not affect PTC readthrough
